Reference: patent US5141960A, “Tricyclic glycinamide derivatives as anti-convulsants” (G. D. Searle & Co., priority 1991, dated 1992)
pIC50: −log10 of the molar value.

Legend:
[1] = Acute toxicity (LD50, oral); parameters: species or system male mice; details: mouse, in vivo, mice, mortality over 15 days
Method: (§1) Treatment of a mammal afflicted by or susceptible to certain CNS disorders is accomplished by administration of a therapeutically-effective amount of a compound of Formula I. In particular, compounds 1-3 of Table 1 were evaluated by in vitro and in vivo animal model assays to determine the pharmacological properties of such compounds and their suitability for use as therapeutic drugs in humans. These biological assays, as described below, consisted of prevention of induced convulsions in mice, a TCP binding study in rat brain, determination of acute toxicity in mice and an animal behavior assay. Except as otherwise specified, the animals used in the in vivo test were male Swiss albino mice of weight 22 to 33 g [CD1, Charles River, France], housed in groups of 10 on a 12-hour dark-light cycle for at least one week and fasted overnight prior to testing.
The acute toxicity was determined after oral administration of the test compound to mice. […] Doses used in the test were determined by observing toxic effects on the mice, which doses varied from 3,000 mg/kg down to about 3 mg/kg. The mortality was recorded over a period of 15 days. The LD50 result in Table II was calculated according to published methods [Lichtfield and Wilcoxon, J. Pharmacol. Exp. Ther., 96, 99 (1949)] and is expressed in mg of test compound per kilogram of mouse body weight.

[2] = system: convulsions and death induced by 3-mercaptopropionic acid; test: 3-Mercaptopropionic acid (3-MPA) induced convulsions; assay type: in vivo, male Swiss albino mice (CD1); details: for 3-MPA score: total number of mice protected for two groups of 5 animals, 30 min: 30 min before convulsions induced; for activity as inhibitors of tonic convulsions: overall, 3-MPA induced, oral, mice
Method: as §1
Compounds of Formula I were examined as inhibitors of convulsions and death induced by the convulsant agent 3-mercaptopropionic acid (3-MPA, 120 mg/kg subcutaneously) [W. van Dorsser, D. Barris, A. Cordi and J. Roba, Arch. Int. Pharmacodyn., 266, 239-249 (1983)]. The compounds of the invention were administered orally at a dosage of either 100 mg/kg or 30 mg/kg in a volume of 10 ml/kg each to 5 mice, at intervals of 30 minutes or 2 hours before convulsions were induced. The number of mice protected against tonic convulsions and the number of dead mice were noted. Results are given in Table II as a score which represents the total number of mice protected for two groups of 5 animals (3-MPA).

[3] = parameters: species or system mice; details: mouse, in vivo
Method: as §1
Behavioral effect of compounds of the invention on animals were determined by observations taken at 5 to 6 hours and at 24 hours after administration of compounds of the invention. Determinations were made based on a method derived from that of S. Irwin [See R. A. Turner, Screening Methods in Pharmacology, Chapter 3, pages 22-34, Academic Press, N.Y. (1965)]. If an anomaly were noted, the observation was extended and smaller doses were tested. […]

[4] = molecular target: TCP (1-[1-(2-thienyl)cyclohexyl]piperidine) binding in rat brain synaptic membranes (SPM); test: TCP binding study; details: 2 nM tritiated TCP, pH 7.4, 25° C., 60 min
Method: The effect of compounds of Formula I on TCP (1-[1-(2-thienyl)cyclohexyl]piperidine) binding was measured in rat brain synaptic membranes (SPM) prepared by known methods [J. B. Monahan & J. Michel; J. Neurochem., 48, 1699-1708 (1987)]. Prior to their use in the binding assay, frozen SPM were thawed, then diluted twenty fold with 50 mM Tris/acetate [pH 7.4, containing 0.04% (v/v) Triton X-100], incubated for 30 min. at 37° C. and centrifuged at 95,000 xg for 15 min. The Triton X-100 treated SPM were washed with 5 mM Tris/HCl (pH 7.4) and centrifuged a total of six times. Compound of the invention was incubated at differing concentrations with SPM (0.2-0.4 mg protein) and 2 nM tritiated TCP, in a total volume of 0.5 ml of 5 mM Tris/HCl buffer (pH 7.4) at 25° C. for 60 min. The samples were filtered through glass fiber filters (Schleicher & Schuell #32) which had been pretreated with 0.05% (v/v) polyethyleneimine, washed with 2 ml of ice-cold 5 mM Tris/HCl buffer, and then counted on a Beckman LS 5800 liquid scintillation counter with automatic corrections for quenching and counting efficiency. Inhibition of TCP binding was measured as a decrease in basal binding. […] TCP binding inhibition values (IC50) were calculated using logit-log analysis and calculations and regression analysis were performed using templates developed for Lotus 123 by known methods [L. M. Pullan, Computer Appli. […]

[5] = compound orally at 100 mg/kg or 30 mg/kg, 3-MPA 120 mg/kg s.c.

Compound | LD50 at 360 h [1] | 3-MPA score: total number of mice protected for two groups of 5 animals, 30 min [2, 5] | 3-MPA score: total number of mice protected for two groups of 5 animals, 2 hrs ([2]; compound orally at 100 mg/kg or 30 mg/kg, 2 hours before convulsions induced, 3-MPA 120 mg/kg s.c.) | activity as inhibitors of tonic convulsions [2] | Behavior: sedation (SED), dose at which the behavior is observed [3] | pIC50 [4] | Behavior: convulsions (CON), dose at which the behavior is observed [3]
NC(=O)CNC1c2ccccc2CCc2ccccc21 [Compound 1, 2-(2,3-6,7-dibenzocycloheptanylamino)acetamide] | 780 mg/kg | 10 | 10 | very good activity | 300 mg/kg | 4.42 | 
NC(=O)CNC1c2ccccc2C=Cc2ccccc21 [Compound 2, 2-(2,3-6,7-dibenzocyclohept-4-enylamino)acetamide] |  | 3 |  |  |  |  | 1000 mg/kg
NC(=O)CNC1c2ccccc2CSc2ccccc21 (stereo not shown) [Compound 3, 2-(2,3-6,7-dibenzo-4-thiacycloheptanylamino)acetamide] |  | 10 |  | very good activity |  |  | 
